These results are taken from ChEMBL document CHEMBL4418308, “cGAS ANTAGONIST COMPOUNDS” (2017).

Usually IC50 stands for the concentration at which inhibition is half-maximal.

The target of this assay is Cyclic GMP-AMP synthase (Homo sapiens, UniProt Q8N884). Kind of assay: Inhibition of recombinant His6-SUMO tagged human CGAS expressed in Escherichia coli BL21/pLys cells incubated for 20 mins by Kinase Glo chemiluminescence assay. (Kinase-Glo reads ATP consumption through a luciferase reaction.)
Cyclic GMP-AMP synthase, sequence (Q8N884 whole entry): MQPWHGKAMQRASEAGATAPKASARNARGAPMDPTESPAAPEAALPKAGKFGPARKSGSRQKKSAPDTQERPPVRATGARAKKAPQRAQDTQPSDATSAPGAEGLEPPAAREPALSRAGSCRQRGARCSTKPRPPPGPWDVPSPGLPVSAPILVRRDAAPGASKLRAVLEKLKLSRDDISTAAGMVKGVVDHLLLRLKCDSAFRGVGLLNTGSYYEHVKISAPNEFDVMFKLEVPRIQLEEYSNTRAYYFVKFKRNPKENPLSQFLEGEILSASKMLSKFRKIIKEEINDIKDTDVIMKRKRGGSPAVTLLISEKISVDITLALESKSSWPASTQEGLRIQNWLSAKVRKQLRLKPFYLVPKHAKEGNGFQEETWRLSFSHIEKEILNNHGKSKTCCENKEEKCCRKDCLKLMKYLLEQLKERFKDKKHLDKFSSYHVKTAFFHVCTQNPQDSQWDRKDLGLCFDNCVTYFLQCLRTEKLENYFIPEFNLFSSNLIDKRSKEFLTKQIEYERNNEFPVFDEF
On to `CC(Oc1cc(/C=C2\SC(=O)N(C)C2=O)c(Br)cc1O)c1cncnc1` (stereo not drawn), for which the IC50 lay in the range of 0.5 to 10 µM.

As for `CC(Oc1cc(/C=C2\SC(=O)N(C)C2=O)c(Br)c(F)c1O)c1cncnc1` (stereo not drawn), the IC50 was no less than 10 µM. With `O=C1/C(=C/c2ccc(O)cc2Br)Sc2ncccc21` the figure was no more than 0.5 µM; with `CN1C(=O)S/C(=C\c2cc(OCc3cncc(N)c3)c(O)cc2Br)C1=O`, no less than 10 µM; with `CN1C(=O)S/C(=C\c2cc(OCc3cnc(NC(=O)c4ccncc4)nc3)c(O)cc2Br)C1=O`, no more than 0.5 µM.

As to `Cc1ncc(COc2cc(/C=C3\SC(=O)N(C)C3=O)c(Br)c(F)c2O)cn1`, the IC50 is 0.5 to 10 µM. With `CN1C(=O)S/C(=C\c2cc(OCc3ccnc(N)c3)c(O)cc2Br)C1=O` the figure was 0.5 to 10 µM; with `CN1C(=O)S/C(=C\c2cc(OCc3cnc(Nc4ccccc4)nc3)c(O)cc2Br)C1=O`, no less than 10 µM. As to `CN1C(=O)S/C(=C\c2cc3cc[nH]c3cc2Br)C1=O`, the IC50 was 0.5 to 10 µM. With `CN1C(=O)S/C(=C\c2cc(OCc3cnc(C4CC4)nc3)c(O)cc2Br)C1=O` the figure was no less than 10 µM.

Take `CSc1ncc(COc2cc(/C=C3\SC(=O)N(C)C3=O)c(Br)cc2O)c(Cl)n1`: the IC50 is no less than 10 µM. With `O=C1/C(=C/c2cc(OCc3ccncc3)c(O)cc2Br)Sc2ncccc21` the figure was no more than 0.5 µM; with `CN1C(=O)S/C(=C\c2cc(OCc3ccc(=O)[nH]c3)c(O)cc2Br)C1=O`, 0.5 to 10 µM; with `CN1C(=O)S/C(=C\c2cc(OCc3cnc(NCc4ccccn4)nc3)c(O)c(F)c2Br)C1=O`, no less than 10 µM. To `CC(C)COc1cc(/C=C2\SC(=O)N(C)C2=O)c(Br)cc1O` belongs no less than 10 µM. With `CC(C)Nc1ncc(COc2cc(/C=C3\SC(=O)N(C)C3=O)c(Br)cc2O)cn1`, the IC50 is no less than 10 µM. Turning to `CN1C(=O)S/C(=C\c2cc(OCc3cnc(N(C)C)nc3)c(O)cc2Br)C1=O`, the IC50 is no less than 10 µM.

`CN1C(=O)S/C(=C\c2cc(OCc3cnc(C4CCNCC4)nc3)c(O)cc2Br)C1=O`: the IC50 was in the range of 0.5 to 10 µM. To `CN1C(=O)S/C(=C\c2cc(OCC3CCN(C(=O)c4ccccc4)CC3)c(O)cc2Br)C1=O` belongs no less than 10 µM. With `CN1C(=O)S/C(=C\c2cc(OCc3cnc(Nc4cccnc4)nc3)c(O)cc2Br)C1=O` the figure was 0.5 to 10 µM.

Turning to `COc1cc(/C=C2\Sc3ncccc3C2=O)c(C)cc1O`, the IC50 fell in the range of 0.5 to 10 µM.

As to `CN1C(=O)S/C(=C\c2cc(OCc3cnc(Nc4ccccn4)nc3)c(O)cc2Br)C1=O`, the 50% inhibitory concentration (IC50) is no less than 10 µM. In the case of `Cc1ncc(COc2cc(/C=C3\SC(=O)N(C)C3=O)c(Br)cc2O)cn1`, the IC50 is no more than 0.5 µM. For the molecule `CCc1cc(/C=C2\SC(=O)N(C)C2=O)c(Br)cc1O`, the IC50 was in the range of 0.5 to 10 µM.

`CN1C(=O)S/C(=C\c2cc(OCC3CCN(C(=O)c4ccccn4)CC3)c(O)cc2Br)C1=O`: the IC50 is no less than 10 µM.

As for `CN1C(=O)S/C(=C\c2cc(OCc3cnc(NC(=O)c4ccncc4)nc3)c(O)c(F)c2Br)C1=O`, the half-maximal inhibitory concentration (IC50) is no more than 0.5 µM. To `CN1C(=O)S/C(=C\c2cc(OCc3cnc(-n4ccnc4)nc3)c(O)cc2Br)C1=O` belongs 0.5 to 10 µM; to `CN1C(=O)S/C(=C\c2cc(OCc3cnc(N4CCCCC4)nc3)c(O)cc2Br)C1=O`, no less than 10 µM; to `CC(Oc1cc(/C=C2\SC(=O)N(C)C2=O)c(Br)cc1O)c1cnc(N)nc1` (stereo not drawn), no more than 0.5 µM. With `COc1nc(SC)ncc1COc1cc(/C=C2\SC(=O)N(C)C2=O)c(Br)cc1O` the figure was no less than 10 µM; with `CC(Oc1cc(/C=C2\Sc3ncccc3C2=O)c(Br)cc1O)c1cnc(Cl)nc1` (stereo not drawn), no more than 0.5 µM; with `CN1C(=O)S/C(=C\c2cc(OCc3cnc(N)nc3C3CC3)c(O)c(F)c2Br)C1=O`, 0.5 to 10 µM. For `CNc1ncc(COc2cc(/C=C3\SC(=O)N(C)C3=O)c(Br)c(F)c2O)cn1`, the IC50 is no more than 0.5 µM.

Turning to `CN1C(=O)S/C(=C\c2cc(OCc3cnc(-c4ccncc4)nc3)c(O)cc2Br)C1=O`, the IC50 is no more than 0.5 µM. Regarding `CCc1cc(/C=C2\Sc3ncccc3C2=O)c(Br)cc1O`, the IC50 is no more than 0.5 µM.

As to `CN1C(=O)S/C(=C\c2cc(OCc3ccccc3)c(O)cc2Br)C1=O`, the IC50 is no less than 10 µM. With `COc1cc(/C=C2\SC(=O)N(C)C2=O)c(C)cc1O` the figure was 0.5 to 10 µM; with `CNc1ncc(C(C)Oc2cc(/C=C3\SC(=O)N(C)C3=O)c(Br)c(F)c2O)cn1` (stereo not drawn), no less than 10 µM; with `CN1C(=O)S/C(=C\c2cc(OCc3cnc(-n4cccn4)nc3)c(O)cc2Br)C1=O`, 0.5 to 10 µM. To `CC(=O)c1cc(/C=C2\SC(=O)N(C)C2=O)c(Br)cc1O` belongs no less than 10 µM; to `CN1CCC(COc2cc(/C=C3\SC(=O)N(C)C3=O)c(Br)cc2O)CC1`, no less than 10 µM; to `CN1C(=O)S/C(=C\c2cc(OCc3ccc(NC(=O)c4ccccn4)nc3)c(O)cc2Br)C1=O`, no less than 10 µM.

As to `CN1C(=O)S/C(=C\c2cc(Oc3ccc([N+](=O)[O-])nc3)c(O)cc2Br)C1=O`, the half-maximal inhibitory concentration (IC50) is no less than 10 µM. To `CN1C(=O)S/C(=C\c2cc(OCc3cnc(N4CCOCC4)nc3)c(O)cc2Br)C1=O` belongs no less than 10 µM; to `Cc1ncc(C(C)Oc2cc(/C=C3\SC(=O)N(C)C3=O)c(Br)cc2O)cn1` (stereo not drawn), no less than 10 µM; to `CN1C(=O)S/C(=C\c2cc(OCC3CCN(C(=O)c4ccncc4)CC3)c(O)cc2Br)C1=O`, no less than 10 µM. For the molecule `CN1C(=O)S/C(=C\c2cc(OCc3cnc(Nc4ccncc4)nc3)c(O)cc2Br)C1=O`, the IC50 is no more than 0.5 µM.

As to `CSc1ncc(COc2cc(/C=C3\SC(=O)N(C)C3=O)c(Br)cc2O)c(SC)n1`, the IC50 was no less than 10 µM. Regarding `CN1C(=O)S/C(=C\c2cc(OCc3cnc(N4CCCC4)nc3)c(O)cc2Br)C1=O`, the half-maximal inhibitory concentration (IC50) was no less than 10 µM. On to `CN1C(=O)S/C(=C\c2cc(OCc3cnc(-c4ccccc4)nc3)c(O)cc2Br)C1=O`, for which the IC50 was no less than 10 µM. To `COCCNc1ncc(C(C)Oc2cc(/C=C3\SC(=O)N(C)C3=O)c(Br)cc2O)cn1` (stereo not drawn) belongs 0.5 to 10 µM. In the case of `CN1C(=O)S/C(=C\c2cc(OCc3ccnc(N)n3)c(O)cc2Br)C1=O`, the IC50 is 0.5 to 10 µM. For the molecule `Cc1nc(N)ncc1C(C)Oc1cc(/C=C2\SC(=O)N(C)C2=O)c(Br)cc1O` (stereo not drawn), the IC50 is no less than 10 µM. To `COc1cc(/C=C2\SC(=O)N(C)C2=O)c(Br)cc1NS(=O)(=O)C(F)(F)F` belongs 0.5 to 10 µM; to `CN1C(=O)S/C(=C\c2cc(OCc3ccn(Cc4ccccc4)c(=O)c3)c(O)cc2Br)C1=O`, no less than 10 µM; to `CC(Oc1cc(/C=C2\SC(=O)N(C)C2=O)c(Br)cc1O)c1cnc(NCCO)nc1` (stereo not drawn), 0.5 to 10 µM. Take `CN1C(=O)S/C(=C\c2cc(OCc3cc[nH]c(=O)c3)c(O)cc2Br)C1=O`: the IC50 lay in the range of 0.5 to 10 µM. On to `CSc1ncc(COc2cc(/C=C3\SC(=O)N(C)C3=O)c(Br)cc2O)cn1`, for which the IC50 is no less than 10 µM.

On to `CC(=O)Nc1nc(S(=O)(=O)Nc2cc(Br)c(/C=C3\SC(=O)N(C)C3=O)cc2OCc2ccccc2)cs1`, for which the IC50 was 0.5 to 10 µM. With `CC(Oc1cc(/C=C2\Sc3ncccc3C2=O)c(Br)cc1O)c1cccnc1` (stereo not drawn) the figure was 0.5 to 10 µM; with `CC(Oc1cc(/C=C2\SC(=O)N(C)C2=O)c(Br)cc1O)c1cnc(Cl)nc1` (stereo not drawn), no less than 10 µM; with `CN1CCN(c2ncc(COc3cc(/C=C4\SC(=O)N(C)C4=O)c(Br)cc3O)cn2)CC1`, no less than 10 µM. With `Nc1ncc(COc2cc(/C=C3\Sc4ncccc4C3=O)c(Br)cc2O)c(C(F)(F)F)n1` the figure was no more than 0.5 µM; with `CN1C(=O)S/C(=C\c2cc(OCc3cnc(NCc4ccccc4)nc3)c(O)cc2Br)C1=O`, no less than 10 µM. With `Cc1ncc(COc2cc(/C=C3\Sc4ncccc4C3=O)c(Br)cc2O)c(C)n1` the figure was no more than 0.5 µM; with `COc1ncc(COc2cc(/C=C3\SC(=O)N(C)C3=O)c(Br)cc2O)cn1`, 0.5 to 10 µM; with `CN1C(=O)S/C(=C\c2cc(OCc3cncc4ccccc34)c(O)cc2Br)C1=O`, no less than 10 µM. `CN1C(=O)S/C(=C\c2cc(OCCc3ccncc3)c(O)cc2Br)C1=O`: the 50% inhibitory concentration (IC50) is 0.5 to 10 µM. With `O=C1/C(=C/c2cc3nn[nH]c3cc2Br)Sc2ncccc21` the figure was no more than 0.5 µM; with `COc1cc(/C=C2\Sc3ncccc3C2=O)c(I)cc1O`, no more than 0.5 µM. With `O=C1/C(=C/c2cc(OCc3cnc(NCc4ccccn4)nc3)c(O)cc2Br)Sc2ncccc21` the figure was no more than 0.5 µM. Take `CN1C(=O)S/C(=C\c2cc(OCc3cnc(-c4ccccn4)nc3)c(O)cc2Br)C1=O`: the IC50 was 0.5 to 10 µM. To `CN1C(=O)S/C(=C\c2cc(OCc3ccc4ncccc4c3)c(O)cc2Br)C1=O` belongs no less than 10 µM; to `CN1C(=O)S/C(=C\c2cc(OCc3ccn(-c4ccccc4)c(=O)c3)c(O)cc2Br)C1=O`, no less than 10 µM; to `O=C1/C(=C/c2cc(OCc3cnc(NCc4cccnc4)nc3)c(O)cc2Br)Sc2ncccc21`, no more than 0.5 µM. With `CSc1cc(/C=C2\SC(=O)N(C)C2=O)c(Br)cc1O` the figure was 0.5 to 10 µM. Regarding `CN1C(=O)S/C(=C\c2cc(OCc3cnc(N)nc3C(F)(F)F)c(O)cc2Br)C1=O`, the IC50 is no more than 0.5 µM. To `CNc1ncc(C(C)Oc2cc(/C=C3\SC(=O)N(C)C3=O)c(Br)cc2O)cn1` (stereo not drawn) belongs no less than 10 µM; to `CN1C(=O)S/C(=C\c2cc(OCc3cccc4cnccc34)c(O)cc2Br)C1=O`, no less than 10 µM. To `CN1C(=O)S/C(=C\c2cc(OCc3cnc(NCc4ccncc4)nc3)c(O)c(F)c2Br)C1=O` belongs no more than 0.5 µM.

For `CN1C(=O)S/C(=C\c2cc(OCc3ccnc4ccccc34)c(O)cc2Br)C1=O`, the IC50 is no less than 10 µM. To `CN1C(=O)S/C(=C\c2cc(OCC3CCN(C(=O)c4cccnc4)CC3)c(O)cc2Br)C1=O` belongs 0.5 to 10 µM; to `CN1C(=O)S/C(=C\c2cc(OCc3ccccn3)c(O)cc2Br)C1=O`, no less than 10 µM. To `CN1C(=O)S/C(=C\c2cc(OCc3ccc4cccnc4c3)c(O)cc2Br)C1=O` belongs no less than 10 µM; to `CN1C(=O)S/C(=C\c2cc(Oc3ccnc(N)c3)c(O)cc2Br)C1=O`, no less than 10 µM; to `CC(C)CNc1ncc(COc2cc(/C=C3\SC(=O)N(C)C3=O)c(Br)cc2O)cn1`, no less than 10 µM. As for `COc1cc(/C=C2\Sc3ncccc3C2=O)c(Br)cc1Oc1cnc(N)s1`, the IC50 is no less than 10 µM. With `CN1C(=O)S/C(=C\c2cc(OCc3cnc(-c4cccnc4)nc3)c(O)cc2Br)C1=O` the figure was no less than 10 µM.
